Experimental data from patent US20240158418A1 (C4 Therapeutics, Inc., priority 2021, published 2024).

Columns and labels:
[1] = test system: pERK; experiment: Western blot NCI-H3255, Compound 1 with or without osimertinib: phospho-ERK; type: cell-based, human; details: NCI-H3255, six hours, 0-1,500 nM, presence and absence of 1,500 nM osimertinib
From the text: (§1) The compound bearing solutions were formulated to achieve a 0.1% final concentration of DMSO. […] Antibodies used in western blot were purchased from the following vendors: EGFR-L858R specific antibody (CST 3197), pY1068 EGFR (CST 2234), pERK (CST 4370), ERK (CST 4695), vinculin (Millipore 05-386).

[2] = target: T1, pY1068 EGFR (Homo sapiens, UniProt P00533, L858R); experiment: Western blot NCI-H3255, Compound 1 with or without osimertinib: phospho-EGFR; type: cell-based; details: NCI-H3255, six hours, 0-1,500 nM, presence and absence of 1,500 nM osimertinib
T1 construct: NCI-H3255 (harboring EGFR heterozygous L858R mutation); host or cells: NCI-H3255
From the text: as §1

[3] = test system: NCI-H1975 cells; experiment: Global proteomics (TMT), NCI-H1975; type: cell-based, human
Description: Each cell line was treated in duplicate with either DMSO or Compound 1 (final concentration 300 nM) for 6 hours in an incubator at 37° C. with 5% CO2. After 6 hour incubation, cells were harvested, washed twice with PBS, and snap frozen in liquid nitrogen. Samples were re-suspended in lysis buffer [8 M urea, 50 mM HEPS (pH 8.5), 50 mM NaCl, 1× protease inhibitor cocktail] and lysed by sonication at 4° C. with 85% amplitude in a pulse setting with 30 seconds on and 30 seconds off for a total sonication time of 5 minutes. Lysates were centrifuged at maximum speed for 10 minutes at 4° C. and the supernatant collected, reduced for 1 hour at room temperature with 5 mM TCEP, and the cysteine residues were then alkylated with 15 mM iodoacetamide (room temperature, in dark, 30 minutes). Protein content was extracted by methanol-chloroform precipitation and subsequent ice-cold acetone washes. Protein pellets were resuspended in 8 M urea, 50 mM HEPES (pH 8.5) buffer and protein concentrations were measured by BCA assay. […]
6 μL of each sample was separated by reversed phase chromatography using an EASY-Spray C18 column (2 μm particle size, 500 mm length×75 μm ID) mounted in an EASY-nLC 1200 LC pump coupled to an Orbitrap Fusion Lumos Tribid mass spectrometer. […] TMT reporter ion intensities were quantified by extracting the signal-to-noise ratio for each. […]

[4] = test system: NCI-H1975 L858R-T790M NSCLC xenograft tumors; experiment: NCI-H1975 NSCLC xenograft efficacy; type: in vivo, female BALB/c nude mice
Description: For the NCI-H1975 cells, the xenograft study was conducted in female BALB/c nude mice bearing NCI-H1975 NSCLC tumors. Female nude mice were inoculated subcutaneously in the right flank with 5×10^6 tumors cells in 0.1 mL of PBS. Tumor volume was measured twice weekly in two dimensions using calipers, and volume (mm^3) was calculated using the formula: V=0.5 a×b^2 where a and b are the long and short diameters of the tumor in mm, respectively.
Body weight and MTV were measured on a 2× weekly schedule. Statistical analysis was performed using a one-way ANOVA. Data are expressed as MTV±SEM.

T1 sequence (P00533 25-1210 L858R): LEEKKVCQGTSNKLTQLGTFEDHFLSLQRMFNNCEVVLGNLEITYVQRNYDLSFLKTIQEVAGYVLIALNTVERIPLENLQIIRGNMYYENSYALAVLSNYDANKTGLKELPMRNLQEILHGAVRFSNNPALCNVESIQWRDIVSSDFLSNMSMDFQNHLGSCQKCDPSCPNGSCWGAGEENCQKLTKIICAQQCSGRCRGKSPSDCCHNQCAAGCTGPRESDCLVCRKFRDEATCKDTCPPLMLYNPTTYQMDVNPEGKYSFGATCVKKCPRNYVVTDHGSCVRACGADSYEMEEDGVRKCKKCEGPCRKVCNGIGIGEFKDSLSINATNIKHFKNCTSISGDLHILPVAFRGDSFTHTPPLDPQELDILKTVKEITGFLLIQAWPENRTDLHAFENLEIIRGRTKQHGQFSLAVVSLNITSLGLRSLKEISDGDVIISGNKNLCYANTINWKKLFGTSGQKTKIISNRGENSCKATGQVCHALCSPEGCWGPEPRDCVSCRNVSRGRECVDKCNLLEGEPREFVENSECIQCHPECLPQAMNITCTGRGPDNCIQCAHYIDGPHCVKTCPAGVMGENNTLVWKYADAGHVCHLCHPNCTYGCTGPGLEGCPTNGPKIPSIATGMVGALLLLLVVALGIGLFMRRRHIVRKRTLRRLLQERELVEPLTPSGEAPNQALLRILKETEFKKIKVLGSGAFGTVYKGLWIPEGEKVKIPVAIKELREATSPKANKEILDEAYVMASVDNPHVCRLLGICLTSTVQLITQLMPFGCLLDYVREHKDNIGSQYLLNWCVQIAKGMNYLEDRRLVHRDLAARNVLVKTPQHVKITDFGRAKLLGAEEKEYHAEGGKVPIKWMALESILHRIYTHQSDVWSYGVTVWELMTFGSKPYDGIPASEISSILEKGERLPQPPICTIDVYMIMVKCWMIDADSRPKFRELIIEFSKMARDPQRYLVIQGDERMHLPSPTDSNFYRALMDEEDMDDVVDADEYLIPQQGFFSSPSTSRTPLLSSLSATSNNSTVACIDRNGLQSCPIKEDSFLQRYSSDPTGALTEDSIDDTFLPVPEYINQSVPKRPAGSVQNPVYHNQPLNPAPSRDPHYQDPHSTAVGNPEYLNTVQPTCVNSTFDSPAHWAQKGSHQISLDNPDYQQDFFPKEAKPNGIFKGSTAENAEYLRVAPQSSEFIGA

Question: With O=C1CC[C@H](Nc2ccc(N3CCC(O)(CC(=O)N4CC5(C4)CN(c4ccc(-c6cc(F)c7c(c6)C(=O)N(C(C(=O)Nc6nccs6)c6ncn8c6CCC8)C7)cc4)C5)CC3)c(F)c2)C(=O)N1 (stereo partly drawn) [Compound 1, 2-(6,7-dihydro-5H-pyrrolo[1,2-c]imidazol-1-yl)-2-[6-[4-[2-[2-[1-[4-[[(3S)-2,6-dioxo-3-piperidyl]amino]-2-fluoro-phenyl]-4-hydroxy-4-piperidyl]acetyl]-2,6-diazaspiro[3.3]heptan-6-yl]phenyl]-4-fluoro-1-oxo-isoindolin-2-yl]-N-thiazol-2-yl-acetamide] as the compound, how does the “phospho-ERK inhibition (western blot)” value [1] read?
Answer: inhibited

Question: What about the “phospho-EGFR inhibition (western blot)” value [2] of the same compound?
Answer: inhibited

Question: What about the “degradation selectivity for mutant EGFR-L858R over non-EGFR proteins” value [3] of the same compound?
Answer: highly selective

Question: What about the “efficacy on NCI-H1975 tumor volume” value ([4]; 20, 50 and 100 mg/kg/day PO BID, 14 days) of the same compound?
Answer: reduced tumor volume

Question: What about the tumor regression ([4]; NCI-H1975 mouse xenograft model, oral) of the same compound?
Answer: up to 90%
